Data: US20230113037A1 (Bayer Aktiengesellschaft, priority 2019, published 2023)
pIC50: −log10 of the molar value.

Target: T1, AHR (Mus musculus, UniProt P30561)
T1 sequence (P30561 1-848 P471L/N533S/M589L): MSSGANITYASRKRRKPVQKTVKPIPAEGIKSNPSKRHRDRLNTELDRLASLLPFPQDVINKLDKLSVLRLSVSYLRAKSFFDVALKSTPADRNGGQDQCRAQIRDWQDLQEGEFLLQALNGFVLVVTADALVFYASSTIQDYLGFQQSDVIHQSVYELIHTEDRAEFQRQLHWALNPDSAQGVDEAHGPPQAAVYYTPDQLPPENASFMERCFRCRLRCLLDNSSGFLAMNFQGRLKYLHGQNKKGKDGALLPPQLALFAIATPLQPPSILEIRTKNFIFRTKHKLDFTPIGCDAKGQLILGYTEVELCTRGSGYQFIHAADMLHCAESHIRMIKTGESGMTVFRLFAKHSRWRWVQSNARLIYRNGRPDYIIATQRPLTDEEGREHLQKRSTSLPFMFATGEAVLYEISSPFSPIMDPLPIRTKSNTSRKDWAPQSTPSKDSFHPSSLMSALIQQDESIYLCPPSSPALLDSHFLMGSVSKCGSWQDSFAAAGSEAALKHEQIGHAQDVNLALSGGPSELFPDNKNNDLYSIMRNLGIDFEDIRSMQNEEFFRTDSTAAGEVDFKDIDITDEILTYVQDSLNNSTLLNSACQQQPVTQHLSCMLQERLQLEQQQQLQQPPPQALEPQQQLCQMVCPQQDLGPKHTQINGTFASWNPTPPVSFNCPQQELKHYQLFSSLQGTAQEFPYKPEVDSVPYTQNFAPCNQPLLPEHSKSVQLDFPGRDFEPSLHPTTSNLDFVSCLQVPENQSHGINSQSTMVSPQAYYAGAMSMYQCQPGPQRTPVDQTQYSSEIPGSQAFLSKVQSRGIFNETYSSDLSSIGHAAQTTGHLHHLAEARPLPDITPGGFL
Assay: In vitro assay 3: antagonism in mouse cell line (AHR transactivation, firefly luciferase reporter, kynurenic acid prestimulated)
Type: cell-based
Conditions: mouse Hepa 1c1c7 cells, 200 μM kynurenic acid, 20 hours, read-out: AHR Antagonism Mouse IC50
Protocol: Examples were tested in selected biological assays one or more times. When tested more than once, data are reported as either average values or as median values, wherein • the average value, also referred to as the arithmetic mean value, represents the sum of the values obtained divided by the number of times tested, and • the median value represents the middle number of the group of values when ranked in ascending or descending order. If the number of values in the data set is odd, the median is the middle value. If the number of values in the data set is even, the median is the arithmetic mean of the two middle values.
In addition the cells were stably transfected with an AHR inducible firefly luciferase reporter gene construct that carried AHR-binding sites (DRE) in its promoter. Kynurenic acid is an endogenous AHR activating ligand and was used to prestimulate test cells prior to testing the antagonistic properties of compounds.
As positive inhibition control cells without addition of kynurenic acid were incubated. Normalization was done by positive and negative controls.
Firefly luciferase activity was determined by the SteadyGlo Luciferase Assay System (Promega, #E2550).

SMILES	pIC50
COc1ccc(-c2nc3c4ccccc4nc(NC4CCCNC4=O)n3n2)cc1 (single isomer, unassigned) [Example 37, 3-{[2-(4-methoxyphenyl)[1,2,4]triazolo[1,5-c]quinazolin-5-yl]amino}piperidin-2-one]	6.62
O=C1NCCCC[C@@H]1Nc1nc2ccccc2c2nc(-c3ccccc3)nn12 [Example 1, (3S)-3-[(2-phenyl[1,2,4]triazolo[1,5-c]quinazolin-5-yl)amino]azepan-2-one]	8.31
O=C1NCCCC[C@@H]1Nc1nc2ccccc2c2nc(-c3ccc(Cl)cc3)nn12 [Example 7, (3S)-3-{[2-(4-chlorophenyl)[1,2,4]triazolo[1,5-c]quinazolin-5-yl]amino}azepan-2-one]	8.61
Cn1cc(-c2nc3c4ccccc4nc(N[C@H](CO)C(N)=O)n3n2)cn1 [Example 16, N^2-[2-(1-methyl-1H-pyrazol-4-yl)[1,2,4]triazolo[1,5-c]quinazolin-5-yl]-D-serinamide]	< 4.70
COc1ccc(-c2nc3c4ccccc4nc(N[C@@H](CCCCNC(=O)OC(C)(C)C)C(N)=O)n3n2)cc1 [Example 25, tert-butyl [(5S)-6-amino-5-{[2-(4-methoxyphenyl)[1,2,4]triazolo[1,5-c]quinazolin-5-yl]amino}-6-oxohexyl]carbamate]	6.31
COc1ccc(-c2nc3c4ccccc4nc(N[C@H](CO)C(N)=O)n3n2)cc1 [Example 26, N^2-[2-(4-methoxyphenyl)[1,2,4]triazolo[1,5-c]quinazolin-5-yl]-D-serinamide]	7.78
COc1ccc(-c2nc3c4ccccc4nc(N[C@H](CC(C)C)C(N)=O)n3n2)cc1 [Example 27, N^2-[2-(4-methoxyphenyl)[1,2,4]triazolo[1,5-c]quinazolin-5-yl]-D-leucinamide]	8.01
COc1ccc(-c2nc3c4ccccc4nc(NC4CCCNC4=O)n3n2)cc1 (stereo not shown) [Example 28, 3-{[2-(4-methoxyphenyl)[1,2,4]triazolo[1,5-c]quinazolin-5-yl]amino}piperidin-2-one]	8.18
COc1ccc(-c2nc3c4ccccc4nc(N[C@H]4CCCCNC4=O)n3n2)cc1 [Example 30, (3S)-3-{[2-(4-methoxyphenyl)[1,2,4]triazolo[1,5-c]quinazolin-5-yl]amino}azepan-2-one]	8.01
COc1ccc(-c2nc3c4ccccc4nc(NC4CCNC4=O)n3n2)cc1 (stereo not shown) [Example 31, 3-{[2-(4-methoxyphenyl)[1,2,4]triazolo[1,5-c]quinazolin-5-yl]amino}pyrrolidin-2-one]	7.87
COc1ccc(-c2nc3c4ccccc4nc(NC4CNCCNC4=O)n3n2)cc1 (stereo not shown) [Example 34, 6-{[2-(4-methoxyphenyl)[1,2,4]triazolo[1,5-c]quinazolin-5-yl]amino}-1,4-diazepan-5-one]	7.62
Cc1ccc(-c2nc3c4ccccc4nc(N[C@@H]4CCCCNC4=O)n3n2)cc1 [Example 56, (3R)-3-{[2-(4-methylphenyl)[1,2,4]triazolo[1,5-c]quinazolin-5-yl]amino}azepan-2-one]	9.74
O=C1NCCCC[C@@H]1Nc1nc2ccccc2c2nc(-c3ccc(F)cc3)nn12 [Example 71, (3S)-3-{[2-(4-fluorophenyl)[1,2,4]triazolo[1,5-c]quinazolin-5-yl]amino}azepan-2-one]	8.41
O=C1NCCCC1Nc1nc2ccccc2c2nc(-c3ccc(F)cc3)nn12 (stereo not shown) [Example 72, 3-{[2-(4-fluorophenyl)[1,2,4]triazolo[1,5-c]quinazolin-5-yl]amino}piperidin-2-one]	8.00
O=C1NCCC1Nc1nc2ccccc2c2nc(-c3ccc(F)cc3)nn12 (stereo not shown) [Example 73, 3-{[2-(4-fluorophenyl)[1,2,4]triazolo[1,5-c]quinazolin-5-yl]amino}pyrrolidin-2-one]	8.41
COc1cccc(-c2nc3c4ccccc4nc(N[C@@H](C(=O)O)C(C)C)n3n2)c1 [Example 94, N-[2-(3-methoxyphenyl)[1,2,4]triazolo[1,5-c]quinazolin-5-yl]-D-valine]	7.77
CC[C@@H](Nc1nc2ccccc2c2nc(-c3cccc(OC)c3)nn12)C(=O)O [Example 95, (2R)-2-{[2-(3-methoxyphenyl)[1,2,4]triazolo[1,5-c]quinazolin-5-yl]amino}butanoic acid]	6.40

Next, values leading:

pIC50	SMILES
7.14	COc1ccc(-c2nc3c4c(Cl)cccc4nc(NC4CNCCNC4=O)n3n2)cc1 (single isomer, unassigned) [Example 296, 6-{[10-Chloro-2-(4-methoxyphenyl)[1,2,4]triazolo[1,5-c]quinazolin-5-yl]amino}-1,4-diazepan-5-one]
7.60	COc1ccc(-c2nc3c4c(Cl)cccc4nc(NC4CNCCNC4=O)n3n2)cc1 (single isomer, unassigned) [Example 297, 6-{[10-chloro-2-(4-methoxyphenyl)[1,2,4]triazolo[1,5-c]quinazolin-5-yl]amino}-1,4-diazepan-5-one]
7.20	O=C1NCCNCC1Nc1nc2cccc(Cl)c2c2nc(-c3ccc(F)cc3)nn12 (single isomer, unassigned) [Example 298, 6-{[10-chloro-2-(4-fluorophenyl)[1,2,4]triazolo[1,5-c]quinazolin-5-yl]amino}-1,4-diazepan-5-one]
7.43	O=C1NCCNCC1Nc1nc2cccc(Cl)c2c2nc(-c3ccc(F)cc3)nn12 (single isomer, unassigned) [Example 299, 6-{[10-chloro-2-(4-fluorophenyl)[1,2,4]triazolo[1,5-c]quinazolin-5-yl]amino}-1,4-diazepan-5-one]
< 4.70	Cn1cc(-c2nc3c4cccc(C(F)(F)F)c4nc(NC4C(=O)NCC4(C)C)n3n2)cn1 (single isomer, unassigned; (+)) [Example 730, (+)-4,4-dimethyl-3-{[2-(1-methyl-1H-pyrazol-4-yl)-7-(trifluoromethyl)[1,2,4]triazolo[1,5-c]quinazolin-5-yl]amino}pyrrolidin-2-one]
7.63	COc1ccc(-c2nc3c4c(Br)cccc4nc(N[C@@H]4CNCCNC4=O)n3n2)cc1 (stereo in doubt) [Example 281, 6-{[10-bromo-2-(4-methoxyphenyl)[1,2,4]triazolo[1,5-c]quinazolin-5-yl]amino}-1,4-diazepan-5-one]
6.57	COc1cccc(-c2nc3c4ccccc4nc(N[C@H](CCSC)C(N)=O)n3n2)c1 [Example 96, N^2-[2-(3-methoxyphenyl)[1,2,4]triazolo[1,5-c]quinazolin-5-yl]-D-methioninamide]
5.94	COc1cccc(-c2nc3c4ccccc4nc(NC(C)(C)C(N)=O)n3n2)c1 [Example 98, N^2-[2-(3-methoxyphenyl)[1,2,4]triazolo[1,5-c]quinazolin-5-yl]-2-methylalaninamide]
9.59	O=C1NCCCC[C@H]1Nc1nc2c(F)cccc2c2nc(-c3ccc(F)cc3)nn12 [Example 139, (3R)-3-{[7-fluoro-2-(4-fluorophenyl)[1,2,4]triazolo[1,5-c]quinazolin-5-yl]amino}azepan-2-one]
7.85	COc1cccc(-c2nc3c4cc(C)ccc4nc(N[C@H]4CCCCNC4=O)n3n2)c1 [Example 156, (3S)-3-{[2-(3-methoxyphenyl)-9-methyl[1,2,4]triazolo[1,5-c]quinazolin-5-yl]amino}azepan-2-one]
7.34	COc1cccc(-c2nc3c4cc(C)ccc4nc(NC4CCCNC4=O)n3n2)c1 (stereo not shown) [Example 157, 3-{[2-(3-methoxyphenyl)-9-methyl[1,2,4]triazolo[1,5-c]quinazolin-5-yl]amino}piperidin-2-one]
8.59	O=C1NCCCC[C@H]1Nc1nc2cccc(Br)c2c2nc(-c3ccc(F)cc3)nn12 [Example 166, (3R)-3-{[10-bromo-2-(4-fluorophenyl)[1,2,4]triazolo[1,5-c]quinazolin-5-yl]amino}azepan-2-one]
9.23	O=C1NCCCC[C@H]1Nc1nc2cccc(Cl)c2c2nc(-c3ccc(F)cc3)nn12 [Example 170, (3R)-3-{[10-chloro-2-(4-fluorophenyl)[1,2,4]triazolo[1,5-c]quinazolin-5-yl]amino}azepan-2-one]
7.46	COc1ccc(-c2nc3c4c(C)cccc4nc(NC4CNCCNC4=O)n3n2)cc1 (stereo not shown) [Example 192, 6-{[2-(4-methoxyphenyl)-10-methyl[1,2,4]triazolo[1,5-c]quinazolin-5-yl]amino}-1,4-diazepan-5-one]
